Experimental data taken from patent US20240261272A1, “LPA1 ANTAGONISTS FOR TREATING INTERSTITIAL LUNG DISEASE” (Bristol-Myers Squibb Company, priority 2022, published 2024).

Legend:
[1] = Phase 1 Part B multiple ascending dose (MAD) study in healthy participants: safety, blood pressure; format: in vivo, human; parameters: Mean DBP: unit not given here
Experimental: The study was performed in 3 parts in 112 healthy male and female participants, including 24 Japanese participants. Female participants were to be not of childbearing potential. The present study was designed to evaluate the safety and tolerability, PK, and exploratory PD of an oral suspension of Compound A. Parts A and B (Cohort B1 only) enrolled healthy participants and was conducted at a site in The Netherlands and Part B (Cohort B2 to B5) enrolled healthy non-Japanese participants and was conducted at a site in the United Kingdom (UK). Part C enrolled healthy Japanese participants and was conducted at the same site in the UK.
Part B was a MAD study in a planned number of 6 sequential dose escalation cohorts (10 mg QD, 30 mg QD, 30 mg BID, 60 mg BID, 125 mg BID, and ≤250 mg BID) of 8 healthy participants (6 active+2 placebo) each, under fasted conditions. However, Cohort B6 (≤250 mg BID) was cancelled because sufficient safety and PK data had been obtained at doses up to 125 mg BID. Eligible participants received study drug (Compound A or placebo) administered orally for 14 days.
Physical examinations, vital sign measurements (including orthostasis testing in Cohort A6, Cohort B3 to B5, and C1 to C3 at selected time points), 12-lead electrocardiogram (ECG), and clinical laboratory evaluations were performed at selected times throughout the study. In addition, Holter monitoring was performed for the first 24 hours post dose on Day 1 in Part A (not in FE/pH cohort), and also for the first 24 hours post dose on Day 1 and Day 14 in Parts B and C. Participants were closely monitored for adverse events (AEs). Blood samples were collected for up to 14 days (follow-up visit) after (last) study drug administration for PK analysis. In addition, blood and urine were collected for exploratory biomarker assessments and for biobanking of samples for potential analyses. Urine was collected for potential PK analysis for up to 96 hours after a single dose of Compound A or placebo was administered in the SAD part, and for up to 24 hours after the first (morning) dose of study drug on Day 1 and for up to 24 hours after the last (morning) dose of study drug on Day 14 in the MAD parts.

[2] = Phase 2 study, PPF cohort: safety, adverse events, prespecified blood pressure reduction criteria, dose reductions; format: in vivo, human; conditions: for Asymptomatic blood pressure reduction, patients (%) / Asymptomatic blood pressure reduction, patients, no. / Symptomatic blood pressure reduction, patients (%) / Symptomatic blood pressure reduction, patients, no.: prespecified criteria
Experimental: A total of 123 participants with PPF were randomized. Participants (age ≥21 years) were randomized (1:1:1) to receive 30 mg or 60 mg Compound A or PBO twice daily for 26 weeks. […] Immunosuppressive medications (mycophenolate mofetil, mycophenolic acid, azathioprine and/or tacrolimus) were permitted only if dosing is stable for ≥6 months prior to screening. If receiving antifibrotic agents pirfenidone or nintedanib, patients had to receive a stable dosage for ≥3 months prior to screening and during the screening period; if not receiving pirfenidone or nintedanib, patients had to be naive to both drugs or not have received either 4 weeks prior to Day 1. A total of 47 (38.2%) subjects were receiving antifibrotic treatment (with or without immunosuppression therapy). Of those subjects, 34 were being treated with nintedanib and 13 with pirfenidone. Participants were stratified by usual interstitial pneumonia (UIP) pattern (presence versus absence) and background therapy (antifibrotics +/−ILD-targeted immunosuppression versus ILD-targeted immunosuppression alone versus none).UIP pattern was present in 52% of subjects and unclassifiable ILD was he most common disease categorization.
Patient is experiencing any of the following, confirmed by retest within 15 minutes: • Seated systolic blood pressure <85 mmHg • Seated diastolic blood pressure <55 mmHg • Orthostatic hypotension
Patient is experiencing symptoms that, in the investigator's opinion, could be associated with a reduction in blood pressure and is also experiencing at least one of the following, confirmed by retest within 15 minutes: • Seated systolic blood pressure <100 mmHg or seated diastolic blood pressure <60 mmHg • Decrease of seated systolic blood pressure of ≥20 mmHg from the previous visit or decrease of seated diastolic blood pressure of ≥10 mmHg from the previous visit • Orthostatic hypotension • Orthostatic tachycardia

CCCN(C)C(=O)OCc1c(-c2ccc(O[C@H]3CCC[C@H](C(=O)O)C3)c(C)n2)nnn1C [Compound A, (1S,3S)-3-((2-methyl-6-(1-methyl-5-(((methyl(propyl)carbamoyl)-oxy)methyl)-1H-1,2,3-triazol-4-yl)pyridin-3-yl)oxy)cyclohexane-1-carboxylic acid]
Mean DBP ([1]; MAD 10 mg QD, D 1 2 h): 70.2
Mean DBP ([1]; MAD 10 mg QD, D 1 4 h): 65.8
Mean DBP ([1]; MAD 10 mg QD, D 1 8 h): 68.7
Mean DBP ([1]; MAD 10 mg QD, D 2 24 h): 65.3
Mean DBP ([1]; MAD 10 mg QD, D 14 312 h): 69.3
Mean DBP ([1]; MAD 10 mg QD, D 14 314 h): 67.5
Mean DBP ([1]; MAD 10 mg QD, D 14 317 h): 64.3
Mean DBP ([1]; MAD 10 mg QD, D 14 320 h): 67.5
Mean DBP ([1]; MAD 10 mg QD, D 15 336 h): 66.8
Mean DBP ([1]; MAD 30 mg BID, D 1 2 h): 63.3
Mean DBP ([1]; MAD 30 mg BID, D 1 4 h): 62.7
Mean DBP ([1]; MAD 30 mg BID, D 1 8 h): 63.2
Mean DBP ([1]; MAD 30 mg BID, D 2 24 h): 66.7
Mean DBP ([1]; MAD 30 mg BID, D 14 312 h): 68.7
Mean DBP ([1]; MAD 30 mg BID, D 14 314 h): 63.8
Mean DBP ([1]; MAD 30 mg BID, D 14 317 h): 61.0
Mean DBP ([1]; MAD 30 mg BID, D 14 320 h): 617
Mean DBP ([1]; MAD 30 mg BID, D 15 336 h): 65.3
Mean DBP ([1]; MAD 30 mg QD, D 1 2 h): 66.5
Mean DBP ([1]; MAD 30 mg QD, D 1 4 h): 67.8
Mean DBP ([1]; MAD 30 mg QD, D 1 8 h): 66.0
Mean DBP ([1]; MAD 30 mg QD, D 2 24 h): 67.3
Mean DBP ([1]; MAD 30 mg QD, D 14 312 h): 63.3
Mean DBP ([1]; MAD 30 mg QD, D 14 314 h): 63.5
Mean DBP ([1]; MAD 30 mg QD, D 14 317 h): 61.8
Mean DBP ([1]; MAD 30 mg QD, D 14 320 h): 63.2
Mean DBP ([1]; MAD 30 mg QD, D 15 336 h): 62.3
Mean DBP ([1]; MAD 60 mg BID, D 1 2 h): 64.5
Mean DBP ([1]; MAD 60 mg BID, D 1 4 h): 66.0
Mean DBP ([1]; MAD 60 mg BID, D 1 8 h): 64.7
Mean DBP ([1]; MAD 60 mg BID, D 2 24 h): 65.7
Mean DBP ([1]; MAD 60 mg BID, D 14 312 h): 64.8
Mean DBP ([1]; MAD 60 mg BID, D 14 314 h): 64.0
Mean DBP ([1]; MAD 60 mg BID, D 14 317 h): 62.5
Mean DBP ([1]; MAD 60 mg BID, D 14 320 h): 63.0
Mean DBP ([1]; MAD 60 mg BID, D 15 336 h): 64.5
Mean DBP ([1]; MAD 125 mg BID, D 1 2 h): 62.3
Mean DBP ([1]; MAD 125 mg BID, D 1 4 h): 64.7
Mean DBP ([1]; MAD 125 mg BID, D 1 8 h): 64.7
Mean DBP ([1]; MAD 125 mg BID, D 2 24 h): 66.3
Mean DBP ([1]; MAD 125 mg BID, D 14 312 h): 62.0
Mean DBP ([1]; MAD 125 mg BID, D 14 314 h): 65.0
Mean DBP ([1]; MAD 125 mg BID, D 14 317 h): 59.2
Mean DBP ([1]; MAD 125 mg BID, D 14 320 h): 61.8
Mean DBP ([1]; MAD 125 mg BID, D 15 336 h): 63.0
BP reductions versus placebo (in words) ([1]; MAD BID groups): no clear differences between placebo and the Compound A groups
day-1 blood pressure reduction (in words) [2]: dose dependent day-1 blood pressure reduction
hepatobiliary toxicity (in words) [2]: No hepatobiliary toxicity
tolerability and safety findings (in words) [2]: well-tolerated, demonstrated no unexpected safety findings
Dose dependent low BP thresholds ("events") ([2]; 30 mg): 30%
≥1 TEAE related to study drug, no. ([2]; 30 mg (n = 40)): 7
≥1 TEAE, no. ([2]; 30 mg (n = 40)): 33
≥1 TESAE, no. ([2]; 30 mg (n = 40)): 4
≥1 TEAE related to study drug, no. ([2]; 60 mg (n = 42)): 11
≥1 TEAE, no. ([2]; 60 mg (n = 42)): 28
≥1 TESAE, no. ([2]; 60 mg (n = 42)): 5
Orthostatic hypotension (asymptomatic and symptomatic), comparison of groups (in words) ([2]; 60 mg group): higher in the 60 mg group than for other groups
Dose reductions, patients (%) ([2]; 30-mg Compound A (n = 40)): (15.0) %
Dose reductions, patients, no. ([2]; 30-mg Compound A (n = 40)): 6
Orthostatic hypotension (under asymptomatic blood pressure reduction), patients (%) ([2]; 30-mg Compound A (n = 40)): (15.0) %
Orthostatic hypotension (under asymptomatic blood pressure reduction), patients, no. ([2]; 30-mg Compound A (n = 40)): 6
Orthostatic hypotension (under symptomatic blood pressure reduction), patients (%) ([2]; 30-mg Compound A (n = 40)): (2.5) %
Orthostatic hypotension (under symptomatic blood pressure reduction), patients, no. ([2]; 30-mg Compound A (n = 40)): 1
Asymptomatic blood pressure reduction, patients (%) ([2]; 30-mg Compound A (n = 40)): (22.5) %
Asymptomatic blood pressure reduction, patients, no. ([2]; 30-mg Compound A (n = 40)): 9
Symptomatic blood pressure reduction, patients (%) ([2]; 30-mg Compound A (n = 40)): (5.0) %
Symptomatic blood pressure reduction, patients, no. ([2]; 30-mg Compound A (n = 40)): 2
Dose reductions, patients (%) ([2]; 60-mg Compound A (n = 42)): (11.9) %
Dose reductions, patients, no. ([2]; 60-mg Compound A (n = 42)): 5
Orthostatic hypotension (under asymptomatic blood pressure reduction), patients (%) ([2]; 60-mg Compound A (n = 42)): (26.2) %
Orthostatic hypotension (under asymptomatic blood pressure reduction), patients, no. ([2]; 60-mg Compound A (n = 42)): 11
Orthostatic hypotension (under symptomatic blood pressure reduction), patients (%) ([2]; 60-mg Compound A (n = 42)): (9.5) %
Orthostatic hypotension (under symptomatic blood pressure reduction), patients, no. ([2]; 60-mg Compound A (n = 42)): 4
Asymptomatic blood pressure reduction, patients (%) ([2]; 60-mg Compound A (n = 42)): (31.0) %
Asymptomatic blood pressure reduction, patients, no. ([2]; 60-mg Compound A (n = 42)): 13
Symptomatic blood pressure reduction, patients (%) ([2]; 60-mg Compound A (n = 42)): (14.3) %
Symptomatic blood pressure reduction, patients, no. ([2]; 60-mg Compound A (n = 42)): 6
marked laboratory abnormalities (in words) ([2]; among treatment groups): No notable imbalances in marked laboratory abnormalities among treatment groups
